# Data taken from patent US10766888B1, “HMOX1 inducers” (Mitobridge Inc., priority 2019, dated 2020).
# Molecular target: hERG channel (Homo sapiens, UniProt Q12809)
# Experiment: hERG manual patch clamp assay
# Assay type: cell-based
# Settings: HEK 293 cells stably expressing hERG channel, pH 7.35, 10 μM compound
# Outline: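 Whole-cell manual patch clamp on doxycycline-induced HEK293 cells stably expressing hERG. Tail current measured at −50 mV after a 4.8 s step to +30 mV from −90 mV holding; test compounds at 10 μM, 0.1% DMSO, vs vehicle baseline. Percent inhibition from peak tail current, […].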
# Chain of hERG channel (Q12809 whole entry): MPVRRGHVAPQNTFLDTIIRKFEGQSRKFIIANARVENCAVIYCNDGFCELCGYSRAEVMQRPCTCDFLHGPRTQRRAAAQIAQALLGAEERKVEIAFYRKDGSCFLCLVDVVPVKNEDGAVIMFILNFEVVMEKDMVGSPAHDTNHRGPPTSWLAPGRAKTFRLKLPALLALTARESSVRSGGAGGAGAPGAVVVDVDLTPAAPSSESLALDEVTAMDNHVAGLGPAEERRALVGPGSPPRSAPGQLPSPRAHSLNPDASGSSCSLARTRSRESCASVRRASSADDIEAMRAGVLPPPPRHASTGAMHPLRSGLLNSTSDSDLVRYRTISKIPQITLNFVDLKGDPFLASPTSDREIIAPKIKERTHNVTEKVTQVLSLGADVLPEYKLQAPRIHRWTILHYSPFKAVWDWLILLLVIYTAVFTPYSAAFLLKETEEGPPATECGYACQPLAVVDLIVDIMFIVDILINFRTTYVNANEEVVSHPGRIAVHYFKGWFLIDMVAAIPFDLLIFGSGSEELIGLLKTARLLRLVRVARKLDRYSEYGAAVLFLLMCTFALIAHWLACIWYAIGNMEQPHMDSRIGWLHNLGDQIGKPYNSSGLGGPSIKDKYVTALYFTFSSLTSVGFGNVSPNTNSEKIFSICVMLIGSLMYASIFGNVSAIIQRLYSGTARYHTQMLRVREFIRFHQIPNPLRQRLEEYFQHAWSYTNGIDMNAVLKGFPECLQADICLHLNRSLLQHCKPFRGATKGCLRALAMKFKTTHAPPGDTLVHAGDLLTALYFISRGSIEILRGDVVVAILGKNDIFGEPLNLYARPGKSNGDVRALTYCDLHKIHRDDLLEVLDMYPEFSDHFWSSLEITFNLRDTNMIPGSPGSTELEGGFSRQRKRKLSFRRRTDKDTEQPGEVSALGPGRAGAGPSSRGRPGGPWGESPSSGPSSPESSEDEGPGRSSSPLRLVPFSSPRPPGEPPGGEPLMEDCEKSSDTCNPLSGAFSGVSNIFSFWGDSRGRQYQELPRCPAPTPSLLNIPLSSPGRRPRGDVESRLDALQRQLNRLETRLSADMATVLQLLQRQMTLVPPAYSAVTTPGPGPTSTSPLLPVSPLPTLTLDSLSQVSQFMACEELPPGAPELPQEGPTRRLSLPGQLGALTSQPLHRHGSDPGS
row,Structure (SMILES),inhibition at 10 µM
1,"Cn1c(Nc2nc3ccccc3o2)nc2cc(C(=O)NCCOCCO)ccc21 [Example 17, 2-(benzo[d]oxazol-2-ylamino)-N-(2-(2-hydroxyethoxy)ethyl)-1-methyl-1H-benzo[d]imidazole-5-carboxamide]",16%
2,"COCCNC(=O)c1ccc2c(c1)nc(Nc1nc3ccc(OCCOC)cc3o1)n2C [Example 56, 2-((6-(2-methoxyethoxy)benzo[d]oxazol-2-yl)amino)-N-(2-methoxyethyl)-1-methyl-1H-benzo[d]imidazole-5-carboxamide]",35%
